Measurements taken from US20200155526A1, “TARGETING LYSINE DEMETHYLASES (KDMS) AS A THERAPEUTIC STRATEGY FOR DIFFUSE LARGE B-CELL LYMPHOMA” (THE CHILDREN'S MEDICAL CENTER CORPORATION, priority 2017, published 2020).

How the values were obtained:
[1] = tested on: DB; test: Cell Titer Glo (CTG) viability, JIB04 dose response; format: cell-based; settings: Homo sapiens, 48 h; DB (DLBCL), 2 days treatment, FIG. 2
Description: (§1) For the Cell Titer Glo assays (CTG), between 3000-10,000 cells were plated in a 96 well plate (in triplicates). The cells were allowed to settle for 24 hours before either small molecule(s) or DMSO was added at indicated concentrations. The treatment was performed for indicated days (preferably 2 days for a “snap-shot” experiments). CTG signal was used to assess viability after 2 days according to manufacturer's protocol (Promega Corporation; Madison, Wis.).

[2] = tested on: Farage; test: as above; format: cell-based; settings: 48 h; Farage (DLBCL), 2 days treatment, FIG. 2
Description: as §1

[3] = tested on: HL-60; test: as above; format: cell-based; settings: Homo sapiens, 48 h; HL-60 (leukemia), 2 days treatment, FIG. 2; read-out: effective EC50
Description: as §1

[4] = tested on: Jurkat; test: as above; format: cell-based; settings: Homo sapiens, 48 h; Jurkat (leukemia), 2 days treatment, FIG. 2; read-out: effective EC50
Description: as §1

[5] = tested on: MV4-11; test: as above; format: cell-based; settings: Homo sapiens, 48 h; MV4-11 (leukemia), 2 days treatment, FIG. 2; read-out: effective EC50
Description: as §1

[6] = tested on: SUDHL5; test: as above; format: cell-based; settings: Homo sapiens, SU-DHL-5, 48 h; SUDHL5 (DLBCL), 2 days treatment, FIG. 2
Description: as §1

[7] = tested on: THP-1; test: as above; format: cell-based; settings: Homo sapiens, 48 h; THP-1 (leukemia), 2 days treatment, FIG. 2; read-out: effective EC50
Description: as §1

[8] = tested on: Toledo; test: as above; format: cell-based; settings: Homo sapiens, 48 h; Toledo (DLBCL), 2 days treatment, FIG. 2
Description: as §1

[9] = tested on: OCI-Ly1; test: OCI-Ly1 sensitivity assay (CTG viability); format: cell-based, human; settings: for OCI-Ly1 cell viability, Jumonji-inhibitors: OCI-Ly1, range tested, FIG. 5
Description: as §1
When performing the comparative test of GSK126 and JIB04, daily readings were taken using the manufacturer's protocol for CTG signal after day 2 (for JIB04), and after day 5 (for GSK126).
For OCI-Ly1 sensitivity assay, OCI-Ly1 cells were grown at a density of 1-3×10^6 cells/mL and 3000-10,000 cells were plated in a 96-well plate (in triplicates). The cells were allowed to settle for 24 hours before either the indicated small molecule(s) or DMSO was added at indicated concentrations. CTG signal was used to assess viability after 2 days according to manufacturer's protocol (Promega Corporation; Madison, Wis.). Small molecules used in each experiment are stated in the respective figures along with their concentrations. Results are shown in FIGS. 10, 11, 13, 14, 15, 16 and 22.

[10] = tested on: DLBCL cell lines; test: Sensitivity of DLBCL cell lines (CTG viability); format: cell-based
Description: For the Cell Titer Glo assays (CTG), between 3000-10,000 cells were plated in a 96 well plate (in triplicates). The cells were allowed to settle for 24 hours before either small molecule(s) or DMSO was added at indicated concentrations. The treatment was performed for indicated days (preferably 2 days for a “snap-shot” experiments). CTG signal was used to assess viability after 2 days according to manufacturer's protocol (Promega Corporation; Madison, Wis.). For OCI-Ly1 sensitivity assay, OCI-Ly1 cells were grown at a density of 1-3×10^6 cells/mL and 3000-10,000 cells were plated in a 96-well plate (in triplicates). The cells were allowed to settle for 24 hours before either the indicated small molecule(s) or DMSO was added at indicated concentrations. CTG signal was used to assess viability after 2 days according to manufacturer's protocol (Promega Corporation; Madison, Wis.). Small molecules used in each experiment are stated in the respective figures along with their concentrations. Results are shown in FIGS. 10, 11, 13, 14, 15, 16 and 22.

[11] = tested on: lymphoma cell lines; test: Annexin V staining apoptosis assay; format: cell-based; settings: FIG. 4A
Description: APC-Annexin V was obtained from BD Pharmingen (Franklin Lakes, N.J.), and Annexin V staining was performed as described by the manufacturer.

[12] = tested on: PARP; test: Production of cleaved PARP; format: cell-based; settings: FIG. 4B
[13] = tested on: OCI-Ly1 cell lines; test: Transcriptomics (RNA-seq, GSEA) of JIB04-treated cells; format: cell-based, human
Description: (§2) Three independent cultures of OCI-Ly1 cell lines were grown till the cultures achieved the cell numbers of approximately 1-1.5*10^6 cells/ml, and then cells were treated with either DMSO or two different JIB04 concentrations (150 nM and 500 nM). RNA was isolated using Trizol method, followed by library preparation using NEBUltraII kit (New England Biolabs; Ipswich, Mass.). After high throughput sequencing of the libraries, FastQc was used for filtering and quality control of the reads followed by read alignment to hg19 assembly of the human genome. Reads were counted by TopHat, differential gene expression analysis was performed in Rstudio. GSEA was performed using the desktop client from the Broad Institute, and the GSEA output was visualized using Rstudio.

[14] = Cell cycle analysis by propidium iodide staining; format: cell-based, human; settings: different dosage and times, FIG. 7C
Source text: Propidium Iodide Flow Cytometry Kit from Abcam was used to perform cell cycle analysis using propidium iodide staining according to manufacturer's protocol.

[15] = tested on: Ikaros family members (IKZF1, IKZF3); test: Immunoblotting of Ikaros family members and BCR signaling components; format: cell-based; settings: JIB04 100 nM or 500 nM, FIG. 20
Description: Effect of JIB-04 on Ikaros family members and proximal components of BCR signaling pathway was assayed as follows: One million cells growing under indicated conditions (DMSO or JIB04 treatment; 100 nM or 500 nM) were pelleted by centrifugation at 1000 rpm for 5 min, and then resuspended in RIPA buffer with protease and phosphatase inhibitors. The cell suspension was left on ice for 20 min, and then sonicated using Diagenode water-bath sonicator (15 s. on; 30 s. off, for 15 cycles at max power). After sonication, cell extract was spun at 12000 rpm for 20 min, and the supernatant was collected for immunoblotting. Immunoblotting was performed using standard methods, and the blots were probed using antibodies recognizing indicated proteins.

[16] = tested on: canonical Wnt signaling; test: Transcriptomics / ChIP-seq GSEA of Wnt signaling; format: cell-based; settings: FIGS. 21A-21C
Description: as §2
Cells were fixed with 1% formaldehyde for 10 minutes at room temperature before termination with 0.125 M glycine. Cells were then lysed in ChIP buffer (0.6% SDS, 10 mM EDTA, and 50 mM Tris-HCl, pH 8.1) and cross-linked chromatin was sonicated to obtain DNA fragments of 300-800 bp. […] Libraries were quantified by Qubit (Invitrogen), and sequenced using a HiSeq 2000 (Illumina) to generate 50 bp single end reads.

[17] = tested on: Ly1 cells; test: In vivo Ly1 luciferase model, bioluminescence imaging; settings: NSG mice, 30 mg/kg, 3 times weekly, intra-peritoneal, 2 weeks post treatment, FIGS. 18A-18B
Description: For in vivo studies, Ly1 cells, with a luciferase reporter or […], were administered to Nod/SCID− mice (NSG) (6-8 weeks) were used for tail vein injection. Mice administered the Ly1 cells comprising the luciferase reporter were imaged every week after injection using the IVIS Spectrum In Vivo Imaging System (Perkin Elmer). […] JIB04 was administered three times a week, for two weeks, via intra-peritoneal injection in a mix of 90% sesame oil and 10% DMSO mix (vehicle). Mice were imaged each week and images from pre-treatment and 2-weeks after start of treatment with 30 mg/kg (3× a week) JIB04 are shown in FIG. 18A (pre-treatment) and FIG. 18B (post-treatment).

[18] = tested on: Ly1 cells; test: In vivo Ly1 model, Kaplan Meier survival; settings: mice, compared to vehicle treated mice, FIG. 19
Source text: Mice administered Ly1 cells without the luciferase reporter were monitored post administration, and fraction surviving was plotted (FIG. 19) using the Kaplan Meier Survival Analysis of Graphpad Prism.

[19] = JIB04 150 nM and 500 nM, FIG. 7A

Clc1ccc(N/N=C(\c2ccccc2)c2ccccn2)nc1 [JIB04, 5-Chloro-2-[(E)-2-[phenyl(pyridin-2-yl)methylidene]hydrazin-1-yl]pyridine]
EC50 [1]: < 250 nM
EC50 [2]: < 250 nM
EC50 [3]: ~1000 nM
EC50 [4]: ~1000 nM
EC50 [5]: ~1000 nM
EC50 [6]: < 250 nM
EC50 [7]: ~1000 nM
EC50 [8]: < 250 nM
EC50 ([9]; Homo sapiens, 48 h, OCI-Ly1 (DLBCL), 2 days treatment, FIG. 2): < 250 nM
OCI-Ly1 cell viability, Jumonji-inhibitors [9]: decreased OCI-Ly1 cell viability significantly
JIB04 potency (CTG signal relative to DMSO) when combined with Ibrutinib ([9]; combined with Ibrutinib, compared to JIB04 alone, FIG. 16): increased
reduction of CTG signal, E isomer versus Z isomer ([9]; trans configuration (E isomer) relative to cis configuration (Z isomer), FIG. 13): more is effective at reducing CTG signal relative to the cis configuration (Z isomer)
sensitivity of GCB and ABC type DLBCL lines ([10]; GCB and ABC type DLBCL): both of those lines are sensitive to JIB04
annexin-V positive cells [11]: increase in annexin-V positive cells in a dose-dependent manner
production of cleaved PARP [12]: increased production of cleaved PARP
CDKN1A expression ([13]; FIGS. 7B and 7C): significantly upregulated
downregulated pathways (GSEA) [13, 19]: downregulation of “E2F targets” and “Myc-targets”
upregulated pathways (GSEA) [13, 19]: upregulation of “apoptosis” and “p53”-pathways
cell cycle [14]: cell cycle arrest
levels of Ikaros family members [15]: downregulates levels of members of Ikaros family, such as IKZF1 and IKZF3
canonical Wnt signaling [16]: inhibits canonical Wnt signaling
tumor burden [17]: reduction in tumor burden within a short window of treatment
survival [18]: increased survival as compared to vehicle treated mice

Cc1cc(/C=C/c2ccc3cc(N(C)C)ccc3[n+]2C)c(C)n1-c1ccccc1 [Pyrvinium]
sensitivity of DLBCL cell lines ([10]; FIG. 22): sensitive to Pyrvinium

CC(C)c1c(-c2ccccc2)[nH]c2c(C#N)cnn2c1=O [CPI-455]
OCI-Ly1 cell viability, Jumonji-inhibitors [9]: only JIB04 decreased OCI-Ly1 cell viability significantly

CN(C)CCCNC(=O)c1ccc(-c2cc(O)c3ncccc3c2)cc1 [ML324]
OCI-Ly1 cell viability, Jumonji-inhibitors [9]: only JIB04 decreased OCI-Ly1 cell viability significantly

CCOC(=O)c1ccnc(CNCC(=O)N(CC)CCN(C)C)c1 [KDM5-C70]
OCI-Ly1 cell viability, Jumonji-inhibitors [9]: only JIB04 decreased OCI-Ly1 cell viability significantly

CCOC(=O)CCNc1cc(N2CCc3ccccc3CC2)nc(-c2ccccn2)n1 [GSK-J4]
OCI-Ly1 cell viability, Jumonji-inhibitors [9]: only JIB04 decreased OCI-Ly1 cell viability significantly

O=[N+]([O-])c1cc([N+](=O)[O-])c(/C=C/c2ccc(Cl)c(Cl)c2)cc1/C=C/c1ccc(Cl)c(Cl)c1 [NSC636819]
OCI-Ly1 cell viability, Jumonji-inhibitors [9]: only JIB04 decreased OCI-Ly1 cell viability significantly
